Measurements reported in patent US20250282803A1, “DIDEHYDRO-3'-DEOXY-4'-ETHYNYLTHYMIDINES AND RELATED COMPOUNDS AND THEIR USE IN TREATING MEDICAL CONDITIONS” (ROME Therapeutics, Inc., priority 2022, published 2025).

How the values were obtained:
[1] = molecular target: T1, LINE1 reverse transcriptase (Homo sapiens, UniProt O00370); test: Stable artificial-intron Cis LINE1 reporter assay; assay type: cell-based; parameters: host or cells: HeLa Tet-On 3G; conditions: stable HeLa Tet-On 3G L1 reporter cells, doxycycline 500 ng/mL, 72 h; Firefly Luciferase activity
Protocol: Exemplary compounds were tested for ability to inhibit LINE1 reverse transcriptase using a stable artificial-intron Cis LINE1 reporter assay. Assay procedures and results are described below.
A stable HeLa Tet-On 3G (Takara, cat no 631183) cell line expressing a bi-directional inducible LINE1 construct was generated as described in Xie, Y. et al. “Cell division promotes efficient retrotransposition in a stable L1 reporter cell line,” Mobile DNA (2013) 4:10. Single cell clones were screened for high Luciferase expression and the highest expression Firefly expressing clone was chosen for compound testing.
Test compounds were serially diluted in DMSO and spotted in 96-well plates. Subsequently the HeLa L1 artificial-intron reporter cells were plated into the compound-containing wells (8,000 cells/well), and the cells were induced for reporter expression with doxycycline (Sigma cat no D9891) at a final concentration of 500 ng/mL. Luminescence was measured 72 h after plating using the Dual-Glo Luciferase Assay System (Promega cat no E2940) following the manufacturer's instructions. The Firefly Luciferase activity was used to report LINE1 activity.

[2] = molecular target: T1, LINE1 reverse transcriptase; test: Transient artificial-intron Cis LINE1 reporter assay; assay type: cell-based; conditions: HEK 293 cells, transient transfection; ratio FLuc/RLuc reports LINE1 activity
Protocol: The following compound (hereinafter “Test Compound”) was tested for ability to inhibit LINE1 reverse transcriptase using a transient artificial-intron Cis LINE1 reporter assay:
Additional exemplary compounds were also tested for ability to inhibit LINE1 reverse transcriptase using a transient artificial-intron Cis LINE1 reporter assay. Assay procedures and results are described below.
Intron-disrupted Firefly luciferase (FLuc) expression cassettes were generated as described by Xie, Y. et al. “Characterization of L1 retrotransposition with high-throughput dual-luciferase assays,” Nucleic Acid Res. (2011) Vol. 39, No. 3, e16. In addition, the plasmid contained an intact Renilla luciferase (RLuc) expression cassette on the vector backbone, in order to normalize transfection efficiency and measure potential cell toxicity.
HEK 293 cells were seeded in 96-well plates at 1,000 cells/well in 55 μL and grown for 24 hours. Cells were transfected with FuGeneHD (Promega) following the manufacturer's protocol. Each well received 0.133 ng plasmid, 0.4 μL FuGeneHD reagent, and 4.5 μL GlutaMAX-I-supplemented Opti-MEM I reduced-serum medium (Invitrogen). Cells were simultaneously treated with test compound serially diluted starting at 100 μM in a 3-fold dilution dose response.
Luminescence was measured using the Dual-Glo Luciferase Assay System (Promega) following the manufacturer's instructions. The ratio between FLuc and RLuc gene expression was used to report LINE1 activity.

T1 sequence (O00370 whole entry, looked up): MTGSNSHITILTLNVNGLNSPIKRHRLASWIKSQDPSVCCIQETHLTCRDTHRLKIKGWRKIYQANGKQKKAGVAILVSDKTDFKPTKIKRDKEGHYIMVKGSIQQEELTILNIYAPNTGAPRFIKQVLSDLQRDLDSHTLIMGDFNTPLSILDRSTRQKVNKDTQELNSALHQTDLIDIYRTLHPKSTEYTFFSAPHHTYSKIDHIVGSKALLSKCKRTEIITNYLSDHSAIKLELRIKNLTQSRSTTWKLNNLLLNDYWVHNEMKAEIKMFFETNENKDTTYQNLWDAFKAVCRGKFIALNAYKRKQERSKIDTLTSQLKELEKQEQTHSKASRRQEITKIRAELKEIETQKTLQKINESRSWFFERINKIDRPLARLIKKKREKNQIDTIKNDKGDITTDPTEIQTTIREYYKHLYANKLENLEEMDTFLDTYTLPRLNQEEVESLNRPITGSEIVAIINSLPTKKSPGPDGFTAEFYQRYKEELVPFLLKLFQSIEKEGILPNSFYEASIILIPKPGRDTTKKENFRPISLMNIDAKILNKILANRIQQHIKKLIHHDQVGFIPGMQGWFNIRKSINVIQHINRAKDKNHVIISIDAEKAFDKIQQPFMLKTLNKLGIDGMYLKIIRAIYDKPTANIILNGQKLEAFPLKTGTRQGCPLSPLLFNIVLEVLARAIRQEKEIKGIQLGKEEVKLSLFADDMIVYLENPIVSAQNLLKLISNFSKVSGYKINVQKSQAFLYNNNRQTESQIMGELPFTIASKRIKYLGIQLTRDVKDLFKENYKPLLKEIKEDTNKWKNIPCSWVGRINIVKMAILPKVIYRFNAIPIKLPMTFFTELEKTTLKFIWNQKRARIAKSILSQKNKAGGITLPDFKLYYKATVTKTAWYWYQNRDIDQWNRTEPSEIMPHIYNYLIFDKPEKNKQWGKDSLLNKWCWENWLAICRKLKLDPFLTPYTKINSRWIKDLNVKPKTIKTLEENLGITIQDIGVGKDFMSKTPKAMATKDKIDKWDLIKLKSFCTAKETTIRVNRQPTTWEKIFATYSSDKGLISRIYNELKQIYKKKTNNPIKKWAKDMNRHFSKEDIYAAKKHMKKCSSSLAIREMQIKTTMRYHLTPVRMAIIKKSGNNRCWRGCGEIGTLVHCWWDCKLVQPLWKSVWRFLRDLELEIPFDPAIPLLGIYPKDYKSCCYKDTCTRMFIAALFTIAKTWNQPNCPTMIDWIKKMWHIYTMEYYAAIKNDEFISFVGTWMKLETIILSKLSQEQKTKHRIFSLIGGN

## C#C[C@@]1(CO)C=C[C@H](n2cc(C)c(=O)[nH]c2=O)O1
[1]
  IC50: 50 to 500 nM

## C#C[C@@]1(COP(=O)(N[C@@H](C)C(=O)OCc2ccccc2)Oc2ccccc2)C=C[C@H](n2cc(C)c(=O)[nH]c2=O)O1 (mixture of isomers) [Benzyl ((((2R,5R)-2-Ethynyl-5-(5-methyl-2,4-dioxo-3,4-dihydropyrimidin-1(2H)-yl)-2,5-dihydrofuran-2-yl)methoxy)(phenoxy)phosphoryl)-L-alaninate]
[1]
  IC50: 50 to 500 nM

## C#C[C@@]1(COP(=O)(N[C@@H](C)C(=O)OC)Oc2ccccc2)C=C[C@H](n2cc(C)c(=O)[nH]c2=O)O1 (mixture of isomers) [Methyl ((((2R,5R)-2-Ethynyl-5-(5-methyl-2,4-dioxo-3,4-dihydropyrimidin-1(2H)-yl)-2,5-dihydrofuran-2-yl)methoxy)(phenoxy)phosphoryl)-L-alaninate]
[1]
  IC50: > 500 nM

## C#C[C@@]1(COP(=O)(N[C@@H](C)C(=O)OC)Oc2ccc(Br)cc2)C=C[C@H](n2cc(C)c(=O)[nH]c2=O)O1 (single isomer, unassigned) [P-Diastereomer 1 from Example 2; I-7 or I-8]
[1]
  IC50: 50 to 500 nM

## C#C[C@@]1(COP(=O)(N[C@@H](C)C(=O)OCC(C)(C)C)Oc2cccc3ccccc23)C=C[C@H](n2cc(C)c(=O)[nH]c2=O)O1 (single isomer, unassigned) [P-Diastereomer 1 from Example 2; I-16 or III-1]
[1]
  IC50: 50 to 500 nM
[2]
  IC50: 50 to 500 nM

## C#C[C@@]1(COP(=O)(NC(C)(C)C(=O)OC(C)C)Oc2ccccc2)C=C[C@H](n2cc(C)c(=O)[nH]c2=O)O1 (single isomer, unassigned) [P-Diastereomer 1 from Example 2; II-22 or II-23]
[1]
  IC50: > 500 nM

## C#C[C@@]1(COP(=O)(NCc2ccccc2)OCCSC(=O)C(C)(C)CO)C=C[C@H](n2cc(C)c(=O)[nH]c2=O)O1 (single isomer, unassigned) [P-Diastereomer 1 from Example 3; II-1 or II-2]
[1]
  IC50: 50 to 500 nM
[2]
  IC50: 50 to 500 nM

## C#C[C@@]1(COP(=O)(N[C@@H](C)C(=O)OC)Oc2ccc(Br)cc2)C=C[C@H](n2cc(C)c(=O)[nH]c2=O)O1 (single isomer, unassigned) [P-Diastereomer 2 from Example 2; I-7 or I-8]
[2]
  IC50: 50 to 500 nM

## C#C[C@@]1(COP(=O)(N[C@@H](C)C(=O)OCC(C)(C)C)Oc2cccc3ccccc23)C=C[C@H](n2cc(C)c(=O)[nH]c2=O)O1 (single isomer, unassigned) [P-Diastereomer 2 from Example 2; I-16 or III-1]
[1]
  IC50: 50 to 500 nM
[2]
  IC50: ≤ 50 nM

## C#C[C@@]1(COP(=O)(NC(C)(C)C(=O)OC(C)C)Oc2ccccc2)C=C[C@H](n2cc(C)c(=O)[nH]c2=O)O1 (single isomer, unassigned) [P-Diastereomer 2 from Example 2; II-22 or II-23]
[1]
  IC50: > 500 nM

## C#C[C@@]1(COP(=O)(NCc2ccccc2)OCCSC(=O)C(C)(C)CO)C=C[C@H](n2cc(C)c(=O)[nH]c2=O)O1 (single isomer, unassigned) [P-Diastereomer 2 from Example 3; II-1 or II-2]
[2]
  IC50: 50 to 500 nM

## C#C[C@@]1(CO[P@](=O)(N[C@@H](C)C(=O)OC(C)C)Oc2ccccc2)C=C[C@H](n2cc(C)c(=O)[nH]c2=O)O1 [Compound I-1, Isopropyl ((R)-(((2R,5R)-2-Ethynyl-5-(5-methyl-2,4-dioxo-3,4-dihydropyrimidin-1(2H)-yl)-2,5-dihydrofuran-2-yl)methoxy)(phenoxy)phosphoryl)-L-alaninate]
[1]
  IC50: > 500 nM
[2]
  IC50: 50 to 500 nM

## C#C[C@@]1(CO[P@@](=O)(N[C@@H](C)C(=O)OC(C)C)Oc2ccccc2)C=C[C@H](n2cc(C)c(=O)[nH]c2=O)O1 [Compound I-2, Isopropyl ((S)-(((2R,5R)-2-Ethynyl-5-(5-methyl-2,4-dioxo-3,4-dihydropyrimidin-1(2H)-yl)-2,5-dihydrofuran-2-yl)methoxy)(phenoxy)phosphoryl)-L-alaninate]
[1]
  IC50: > 500 nM
[2]
  IC50: 50 to 500 nM

## C#C[C@@]1(CO[P@](=O)(N[C@@H](C)C(=O)OCC(CC)CC)Oc2ccccc2)C=C[C@H](n2cc(C)c(=O)[nH]c2=O)O1 [Compound I-5, 2-Ethylbutyl ((R)-(((2R,5R)-2-Ethynyl-5-(5-methyl-2,4-dioxo-3,4-dihydropyrimidin-1(2H)-yl)-2,5-dihydrofuran-2-yl)methoxy)(phenoxy)phosphoryl)-L-alaninate]
[1]
  IC50: 50 to 500 nM
[2]
  IC50: 50 to 500 nM

## C#C[C@@]1(CO[P@@](=O)(N[C@@H](C)C(=O)OCC(CC)CC)Oc2ccccc2)C=C[C@H](n2cc(C)c(=O)[nH]c2=O)O1 [Compound I-6, 2-Ethylbutyl ((S)-(((2R,5R)-2-Ethynyl-5-(5-methyl-2,4-dioxo-3,4-dihydropyrimidin-1(2H)-yl)-2,5-dihydrofuran-2-yl)methoxy)(phenoxy)phosphoryl)-L-alaninate]
[1]
  IC50: 50 to 500 nM
[2]
  IC50: 50 to 500 nM

## C#C[C@@]1(COP(=O)(OCOC(=O)OC(C)C)OCOC(=O)OC(C)C)C=C[C@H](n2cc(C)c(=O)[nH]c2=O)O1 [IV-1, 1-[(2R,5R)-5-[({di[(isopropoxycarbonyl)oxy]methoxyphosphoryl}oxy)methyl]-5-ethynyl-2H-furan-2-yl]-5-methyl-3H-pyrimidine-2,4-dione]
[1]
  IC50: ≤ 50 nM
